Values belong to the molecule of their own block, whether it stands above or below them.
System: 156681-154-R-J1-PDC complex spheroid viability
Test: Anticancer human tumor 156681-154-R-J1-PDC patient-derived melanoma cell line growth inhibition [CLK]
Conditions: for IC50: curve of first compound; for viability, T/C: stronger effect = lower value
Summary of the method: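 Multi-cell-type spheroids combined patient-derived tumor cells with HUVEC endothelial cells and human mesenchymal stem cells. Paired agents were dosed in half-log steps down from about clinical Cmax, or from 10 microM where Cmax was unknown.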

[1] = second compound 0.0316 µM, first compound 0.0316 µM
[2] = second compound 0.0316 µM, first compound 0.1 µM
[3] = second compound 0.0316 µM, first compound 0.316 µM
[4] = second compound 0.0316 µM, first compound 1 µM
[5] = second compound 0.0316 µM, first compound 3.16 µM
[6] = second compound 0.0316 µM, first compound 10 µM
[7] = second compound 0.1 µM, first compound 0.0316 µM
[8] = second compound 0.1 µM, first compound 0.1 µM
[9] = second compound 0.1 µM, first compound 0.316 µM
[10] = second compound 0.1 µM, first compound 1 µM
[11] = second compound 0.1 µM, first compound 3.16 µM
[12] = second compound 0.1 µM, first compound 10 µM
[13] = second compound 0.316 µM, first compound 0.0316 µM
[14] = second compound 0.316 µM, first compound 0.1 µM
[15] = second compound 0.316 µM, first compound 0.316 µM
[16] = second compound 0.316 µM, first compound 1 µM
[17] = second compound 0.316 µM, first compound 3.16 µM
[18] = second compound 0.316 µM, first compound 10 µM
[19] = second compound 1 µM, first compound 0.0316 µM
[20] = second compound 1 µM, first compound 0.1 µM
[21] = second compound 1 µM, first compound 0.316 µM
[22] = second compound 1 µM, first compound 1 µM
[23] = second compound 1 µM, first compound 3.16 µM
[24] = second compound 1 µM, first compound 10 µM
[25] = second compound 3.16 µM, first compound 0.0316 µM
[26] = second compound 3.16 µM, first compound 0.1 µM
[27] = second compound 3.16 µM, first compound 0.316 µM
[28] = second compound 3.16 µM, first compound 1 µM
[29] = second compound 3.16 µM, first compound 3.16 µM
[30] = second compound 3.16 µM, first compound 10 µM
[31] = second compound 10 µM, first compound 0.0316 µM
[32] = second compound 10 µM, first compound 0.1 µM
[33] = second compound 10 µM, first compound 0.316 µM
[34] = second compound 10 µM, first compound 1 µM
[35] = second compound 10 µM, first compound 3.16 µM
[36] = second compound 10 µM, first compound 10 µM
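Also: spheroids exposed to the agents for seven days.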
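For viability, T/C in this document: 100% = DMSO vehicle control viability.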

IC50 (second compound 0.0316 µM): 1910 nM | IC50 (second compound 0.1 µM): 1480 nM | IC50 (second compound 0.316 µM): 1100 nM | IC50 (second compound 1 µM): 116 nM | IC50 (second compound 3.16 µM): < 31.6 nM | IC50 (second compound 10 µM): < 31.6 nM
Structure (SMILES): COc1ccc([C@@H](O)c2cc(-c3ncnc4cc(N5CCOCC5)ccc34)c(F)cc2Cl)nn1 + CNC(=O)c1ccc(Nc2nc(OC3CCCC3)c3c(-c4ccc5nc(C)oc5c4)c[nH]c3n2)c(OC)c1
viability, T/C [1]: 80.7% | viability, T/C [2]: 97.2% | viability, T/C [3]: 87.8% | viability, T/C [4]: 69.8% | viability, T/C [5]: 34.6% | viability, T/C [6]: 29% | viability, T/C [7]: 44.7% | viability, T/C [8]: 64.6% | viability, T/C [9]: 52.2% | viability, T/C [10]: 56.8% | viability, T/C [11]: 41.2% | viability, T/C [12]: 21.3% | viability, T/C [13]: 59.5% | viability, T/C [14]: 62% | viability, T/C [15]: 50.9% | viability, T/C [16]: 52.9% | viability, T/C [17]: 28.4% | viability, T/C [18]: 20.7% | viability, T/C [19]: 50.8% | viability, T/C [20]: 55.6% | viability, T/C [21]: 47.7% | viability, T/C [22]: 29.2% | viability, T/C [23]: 32.8% | viability, T/C [24]: 9.5% | viability, T/C [25]: 46.8% | viability, T/C [26]: 47.6% | viability, T/C [27]: 37.1% | viability, T/C [28]: 33.7% | viability, T/C [29]: 29.7% | viability, T/C [30]: 5.99% | viability, T/C [31]: 39.3% | viability, T/C [32]: 30% | viability, T/C [33]: 29.9% | viability, T/C [34]: 28% | viability, T/C [35]: 18.9% | viability, T/C [36]: 2.83%

IC50 (second compound 0.0316 µM): < 31.6 nM | IC50 (second compound 0.1 µM): < 31.6 nM | IC50 (second compound 0.316 µM): < 31.6 nM | IC50 (second compound 1 µM): < 31.6 nM | IC50 (second compound 3.16 µM): < 31.6 nM | IC50 (second compound 10 µM): < 31.6 nM
Structure (SMILES): COc1cccc2c1C(=O)c1c(O)c3c(c(O)c1C2=O)CC(O)(C(=O)CO)CC3OC1CC(N)C(O)C(C)O1 (centres undefined) + CNC(=O)c1ccc(Nc2nc(OC3CCCC3)c3c(-c4ccc5nc(C)oc5c4)c[nH]c3n2)c(OC)c1
viability, T/C [1]: 28.9% | viability, T/C [2]: 20.6% | viability, T/C [3]: 2.62% | viability, T/C [4]: 0.17% | viability, T/C [5]: 0.29% | viability, T/C [6]: 2.75% | viability, T/C [7]: 27.2% | viability, T/C [8]: 20% | viability, T/C [9]: 3.42% | viability, T/C [10]: 0.17% | viability, T/C [11]: 0.11% | viability, T/C [12]: 0.1% | viability, T/C [13]: 30.7% | viability, T/C [14]: 18.2% | viability, T/C [15]: 2.21% | viability, T/C [16]: 0.13% | viability, T/C [17]: 0.1% | viability, T/C [18]: 0.32% | viability, T/C [19]: 18.9% | viability, T/C [20]: 9.29% | viability, T/C [21]: 1.41% | viability, T/C [22]: 0.1% | viability, T/C [23]: 1.2% | viability, T/C [24]: 1.16% | viability, T/C [25]: 17.6% | viability, T/C [26]: 6.96% | viability, T/C [27]: 0.58% | viability, T/C [28]: 0.12% | viability, T/C [29]: 0.1% | viability, T/C [30]: 0.08% | viability, T/C [31]: 16.3% | viability, T/C [32]: 6.19% | viability, T/C [33]: 2.01% | viability, T/C [34]: 0.71% | viability, T/C [35]: 0.12% | viability, T/C [36]: 0.11%
